Counter-ions that a name gives are not always drawn.
Work on COc1ccc(S(=O)(=O)C(C)(Cc2ccc(OCCN(C(C)C)C(C)C)cc2)C(=O)NO)cc1 (stereo not shown) (as salt: HCl) [Example 20, N-Hydroxy-2-(4-methoxy-benzenesulfonyl)-2-methyl-3-[4-(2-N,N-diisopropylamino-ethoxy)-phenyl]-propionamide] yielded a melting point of 98 °C.
Compound CCN(CC)CCOc1ccc(CC(C)(C(=O)NO)S(=O)(=O)c2ccc(OC)cc2)cc1 (stereo not shown) (as salt: HCl) [Example 21, N-Hydroxy-2-(4-methoxy-benzenesulfonyl)-2-methyl-3-[4-(2-N,N-diethylamino-ethoxy)-phenyl]-propionamide] has a melting point of 56 to 59 °C.
Work on COc1ccc(S(=O)(=O)C(C)(Cc2ccc(OCCCN3CCN(c4cccc(Cl)c4)CC3)cc2)C(=O)NO)cc1 (stereo not shown) (as salt: HCl) [Example 23, 3-(4-{3-[4-(3-Chloro-phenyl)-piperazin-1-yl]-propoxy}-phenyl)-N-hydroxy-2-(4-methoxy-benzenesulfonyl)-2-methyl-propionamide] yielded a melting point of 122 °C.
For COc1ccc(S(=O)(=O)C(CCC(C)C)(Cc2cccnc2)C(=O)NO)cc1 (stereo not shown) (as salt: HCl) [Example 69, 2-(4-Methoxy-benzenesulfonyl)-5-methyl-2-pyridin-3-ylmethyl-hexanoic acid hydroxyamide], the melting point was 62 °C.
Work on COc1ccc(CN2CCC(C(=O)NO)(S(=O)(=O)c3ccc(OC)cc3)CC2)cc1 (as salt: HCl) [Example 101, 4-(4-methoxy-benzenesulfonyl)-1-(4-methoxy-benzyl)-piperidine-4-carboxylic acid hydroxyamide] yielded a melting point of 175 °C.
With COc1ccc(CCN2CCC(C(=O)NO)(S(=O)(=O)c3ccc(OC)cc3)CC2)cc1 (as salt: HCl) [Example 102, 4-(4-methoxy-benzenesulfonyl)-1-[2-(4-methoxyphenyl)-ethyl]-piperidine-4-carboxylic acid hydroxyamide] the melting point was 206 °C.
COc1ccc(S(=O)(=O)C2(C(=O)NO)CCN(CCc3ccccc3)CC2)cc1 (as salt: HCl) [Example 103, 4-(4-methoxy-benzenesulfonyl)-1-(2-phenyl-ethyl)-piperidine-4-carboxylic acid hydroxyamide] showed a melting point of 205 °C.
In the case of CCCCOc1ccc(S(=O)(=O)C2(C(=O)NO)CCN(Cc3ccc(OC)cc3)CC2)cc1 (as salt: HCl) [Example 104, 4-(4-n-Butoxy-benzenesulfonyl)-1-(4-methoxy-benzyl)-piperidine-4-carboxylic acid hydroxyamide], the melting point is reported as 173 °C.
Compound COc1ccc(S(=O)(=O)C2(C(=O)NO)CCN(CCOc3ccccc3)CC2)cc1 (as salt: HCl) [Example 107, 4-(4-methoxy-benzenesulfonyl)-1-(2-phenoxy-ethyl)-piperidine-4-carboxylic acid hydroxyamide] has a melting point of 168 to 172 °C.
CCCCOc1ccc(S(=O)(=O)C2(C(=O)NO)CCN(CCOc3ccccc3)CC2)cc1 (as salt: HCl) [Example 108, 4-(4-n-Butoxy-benzenesulfonyl)-1-(2-phenoxy-ethyl)-piperidine-4-carboxylic acid hydroxyamide] showed a melting point of 112 °C.
COc1ccc(S(=O)(=O)C2(C(=O)NO)CCN(Cc3ccc(OCCN4CCCCC4)cc3)CC2)cc1 (as salt: HCl) [Example 109, 4-(4-Methoxy-benzenesulfonyl)-1-[4-(2-piperidin-1-yl-ethoxy)-benzyl]-piperidine-4-carboxylic acid hydroxyamide] gave a melting point of 114 °C.
Compound COc1ccc(S(=O)(=O)C(Cc2cccnc2)(CC2CCCCC2)C(=O)NO)cc1 (stereo not shown) (as salt: hydrochloride) [Example 65, 3-Cyclohexyl-N-hydroxy-2-(4-methoxy-benzenesulfonyl)2-pyridin-3-ylmethyl-propionamide] has a melting point of 57 to 60 °C.
COc1ccc(S(=O)(=O)C(C)(Cc2ccc(OCCN3CCOCC3)cc2)C(=O)NO)cc1 (stereo not shown) (as salt: hydrochloride) [Example 82, 2-(4-methoxy-benzenesulfonyl)-2-methyl-3-[4-(2-mopholinyl-ethoxy)-phenyl]-propionic hydroxyamide hydrochloride] showed a melting point of 98 °C.
